Results: patent EP4582080A1, “DISPENSER FOR MUCOSAL ADMINISTRATION COMPRISING 2-DEOXY-GLUCOSE OR ANALOGUES THEREOF” (G.ST Antivirals GmbH, priority 2024, dated 2025)

What was measured:
[1] = Mucus penetration through mucus on a semipermeable membrane, measured via mass spectrometry; format: in vitro ADME; settings: 35mg/mL in citrate buffer, pH5 versus pH7, 30min at 37 °C (Fig. 6)
Description: The present invention is further illustrated by the following figures and examples, without being restricted thereto. • Fig. 1: Imine formation of 2-deoxy-D-glucose (2-DG) with L-lysine in citric acid•Na2HPO4 buffer (pH 7) at different 2-DG concentrations incubated at 37 °C. Indicated values are means (n=4) ± SEM. • Fig. 2: Imine formation of 2-deoxy-D-glucose (2-DG, 35mg/mL) with L-lysine (O.lmg/mL) in citric acid•Na2HPO4 buffer at different pH values incubated at 37 °C. Indicated values are means (n=4) ± SEM. • Fig. 3: Imine formation of 2-deoxy-D-glucose (2-DG, 35mg/mL) with L-lysine (O.lmg/mL) in citrate buffer at different pH values incubated at 37 °C. Indicated values are means (n=4) ± SEM. • Fig. 4: Imine formation of 2-deoxy-D-glucose (2-DG, 35mg/mL) with L-lysine (O.lmg/mL) in tartrate buffer at different pH values incubated at 37 °C. Indicated values are means (n=4) ± SEM. • Fig. 5: Imine formation of 2-deoxy-D-glucose (2-DG, 35mg/mL) with L-lysine (O.lmg/mL) in maleate buffer at different pH values incubated at 37 °C. Indicated values are means (n=4) ± SEM. • Fig. 6: Mucus penetration of 2-deoxy-D-glucose (2-DG), 2-fluoro-2-deoxy-D-glucose (2-FDG) or 2-fluoro-2-deoxy-D-mannose (2-FDM) (all 35mg/mL) in citrate buffer at pH5 and pH7, incubated for 30min at 37 °C.
We measured the mucus penetration potential in the following manner: After applying mucus onto a semipermeable membrane, formulations containing 2-DG or analogues at indicated pH were applied onto the mucus. Penetrated 2-DG or analogues was measured via mass spectrometry.

[2] = Imine (Schiff's base) formation of 2-DG with L-lysine in buffer; format: physicochemical
Description: The present invention is further illustrated by the following figures and examples, without being restricted thereto. • Fig. 1: Imine formation of 2-deoxy-D-glucose (2-DG) with L-lysine in citric acid•Na2HPO4 buffer (pH 7) at different 2-DG concentrations incubated at 37 °C. Indicated values are means (n=4) ± SEM. • Fig. 2: Imine formation of 2-deoxy-D-glucose (2-DG, 35mg/mL) with L-lysine (O.lmg/mL) in citric acid•Na2HPO4 buffer at different pH values incubated at 37 °C. Indicated values are means (n=4) ± SEM. • Fig. 3: Imine formation of 2-deoxy-D-glucose (2-DG, 35mg/mL) with L-lysine (O.lmg/mL) in citrate buffer at different pH values incubated at 37 °C. Indicated values are means (n=4) ± SEM. • Fig. 4: Imine formation of 2-deoxy-D-glucose (2-DG, 35mg/mL) with L-lysine (O.lmg/mL) in tartrate buffer at different pH values incubated at 37 °C. Indicated values are means (n=4) ± SEM. • Fig. 5: Imine formation of 2-deoxy-D-glucose (2-DG, 35mg/mL) with L-lysine (O.lmg/mL) in maleate buffer at different pH values incubated at 37 °C. Indicated values are means (n=4) ± SEM. • Fig. 6: Mucus penetration of 2-deoxy-D-glucose (2-DG), 2-fluoro-2-deoxy-D-glucose (2-FDG) or 2-fluoro-2-deoxy-D-mannose (2-FDM) (all 35mg/mL) in citrate buffer at pH5 and pH7, incubated for 30min at 37 °C. […]

Compound	Mucus penetration [1]	Imine formation ([2]; 2-DG 35mg/mL, L-lysine (O.lmg/mL), acidic pH (pH < 7.0) in citric acid•Na2HPO4, citrate, tartrate, maleate buffers, 37 °C (Fig. 2-5))	Imine formation ([2]; with L-lysine in citric acid•Na2HPO4 buffer (pH 7), different 2-DG concentrations, 37 °C (Fig. 1))
O=CC[C@@H](O)[C@H](O)[C@H](O)CO [2-DG, 2-deoxy-D-glucose]	increased mucus penetration properties	distinct lowering in the formation of Schiff's bases	lead to the formation of Schiff's bases (imines)
O=C[C@H](F)[C@@H](O)[C@H](O)[C@H](O)CO [2-FDG, 2-fluoro-2-deoxy-D-glucose]	increased mucus penetration properties		
O=C[C@@H](F)[C@@H](O)[C@H](O)[C@H](O)CO [2-FDM, 2-fluoro-2-deoxy-D-mannose]	increased mucus penetration properties		
